# Data as given in PubChem BioAssay (NCI).
#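 Assay format: 96-well plates, 48-hour exposure. TGI denotes the concentration required for complete inhibition of growth.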
# Experiments:
# Experiment in all cases: DTP human tumour cell line panel, 48 h
# SNB-19 CNS = tested on: SNB-19 CNS
# HL-60(TB) leukemia = tested on: HL-60(TB) leukemia
# OVCAR-8 ovarian = tested on: OVCAR-8 ovarian
# SR leukemia = tested on: SR leukemia
# NCI-H522 lung = tested on: NCI-H522 lung
# MDA-MB-231 breast = tested on: MDA-MB-231 breast
# SW-620 colon = tested on: SW-620 colon
# UACC-257 melanoma = tested on: UACC-257 melanoma
# NCI-H460 lung = tested on: NCI-H460 lung
# PC-3 prostate = tested on: PC-3 prostate
# OVCAR-5 ovarian = tested on: OVCAR-5 ovarian
# A498 renal = tested on: A498 renal
# A549 NSCLC = tested on: A549 NSCLC
# DU-145 prostate = tested on: DU-145 prostate
# CAKI-1 renal = tested on: CAKI-1 renal
# HS 578T breast = tested on: HS 578T breast
# EKVX NSCLC = tested on: EKVX NSCLC
# T-47D breast = tested on: T-47D breast
# SK-MEL-5 melanoma = tested on: SK-MEL-5 melanoma
# HT29 colon = tested on: HT29 colon
# SK-MEL-2 melanoma = tested on: SK-MEL-2 melanoma
# SK-MEL-28 melanoma = tested on: SK-MEL-28 melanoma
# OVCAR-4 ovarian = tested on: OVCAR-4 ovarian
# MDA-N = tested on: MDA-N
# NCI-H23 lung = tested on: NCI-H23 lung
# HOP-62 NSCLC = tested on: HOP-62 NSCLC
# HCT-15 colon = tested on: HCT-15 colon
# UACC-62 melanoma = tested on: UACC-62 melanoma
# HCT-116 colon = tested on: HCT-116 colon
# IGROV1 ovarian = tested on: IGROV1 ovarian
# U251 CNS = tested on: U251 CNS
# SF-268 CNS = tested on: SF-268 CNS
# NCI-H226 lung = tested on: NCI-H226 lung
# MALME-3M melanoma = tested on: MALME-3M melanoma
# SNB-75 CNS = tested on: SNB-75 CNS
# HCC-2998 colon = tested on: HCC-2998 colon
# 786-0 renal = tested on: 786-0 renal
# LOX IMVI melanoma = tested on: LOX IMVI melanoma
# M14 melanoma = tested on: M14 melanoma
# RPMI-8226 leukemia = tested on: RPMI-8226 leukemia
# SK-OV-3 ovarian = tested on: SK-OV-3 ovarian
# SN12C renal = tested on: SN12C renal
# UO-31 renal = tested on: UO-31 renal
# KM12 colon = tested on: KM12 colon
# OVCAR-3 ovarian = tested on: OVCAR-3 ovarian
# HOP-92 NSCLC = tested on: HOP-92 NSCLC
# COLO 205 colon = tested on: COLO 205 colon
# MCF7 breast = tested on: MCF7 breast
# SF-539 CNS = tested on: SF-539 CNS
# TK-10 renal = tested on: TK-10 renal
# MDA-MB-435 = tested on: MDA-MB-435
# NCI/ADR-RES ovarian = tested on: NCI/ADR-RES ovarian
# K-562 leukemia = tested on: K-562 leukemia
# CCRF-CEM leukemia = tested on: CCRF-CEM leukemia
# SF-295 CNS = tested on: SF-295 CNS
# RXF 393 renal = tested on: RXF 393 renal
# BT-549 breast = tested on: BT-549 breast
# ACHN renal = tested on: ACHN renal
# MOLT-4 leukemia = tested on: MOLT-4 leukemia
structure (smiles),measurement,setting,value
C=C1C(=O)O[C@H]2[C@H]3O[C@@H](C[C@@H]12)[C@@]1(C)CC[C@H](O1)C(C)=CCC[C@H]3C,TGI,SNB-19 CNS,19 µM
same,TGI,HL-60(TB) leukemia,1.03 µM
same,TGI,OVCAR-8 ovarian,3.1 µM
same,TGI,SR leukemia,0.28 µM
same,TGI,NCI-H522 lung,3.42 µM
same,TGI,MDA-MB-231 breast,3.14 µM
same,TGI,SW-620 colon,7.41 µM
same,TGI,UACC-257 melanoma,3.59 µM
same,TGI,NCI-H460 lung,7.26 µM
same,TGI,PC-3 prostate,2.97 µM
same,TGI,OVCAR-5 ovarian,11.5 µM
same,TGI,A498 renal,3.15 µM
same,TGI,A549 NSCLC,6.96 µM
same,TGI,DU-145 prostate,2.86 µM
same,TGI,CAKI-1 renal,2.56 µM
same,TGI,HS 578T breast,8.95 µM
same,TGI,EKVX NSCLC,3.32 µM
same,TGI,T-47D breast,6.3 µM
same,TGI,SK-MEL-5 melanoma,2.81 µM
same,TGI,HT29 colon,3.33 µM
same,TGI,SK-MEL-2 melanoma,4.11 µM
same,TGI,SK-MEL-28 melanoma,3.36 µM
same,TGI,OVCAR-4 ovarian,3.27 µM
same,TGI,MDA-N,3 µM
same,TGI,NCI-H23 lung,2.96 µM
same,TGI,HOP-62 NSCLC,19.1 µM
same,TGI,HCT-15 colon,3.2 µM
same,TGI,UACC-62 melanoma,4.05 µM
same,TGI,HCT-116 colon,4.29 µM
same,TGI,IGROV1 ovarian,3.83 µM
same,TGI,U251 CNS,2.97 µM
same,TGI,SF-268 CNS,2.95 µM
same,TGI,NCI-H226 lung,7.02 µM
same,TGI,MALME-3M melanoma,3.15 µM
same,TGI,SNB-75 CNS,5.65 µM
same,TGI,HCC-2998 colon,3.25 µM
same,TGI,786-0 renal,2.67 µM
same,TGI,LOX IMVI melanoma,2.89 µM
same,TGI,M14 melanoma,3.15 µM
same,TGI,RPMI-8226 leukemia,2.46 µM
same,TGI,SK-OV-3 ovarian,16.2 µM
same,TGI,SN12C renal,4.05 µM
same,TGI,UO-31 renal,2.77 µM
same,TGI,KM12 colon,3.76 µM
same,TGI,OVCAR-3 ovarian,2.7 µM
same,TGI,HOP-92 NSCLC,3.45 µM
same,TGI,COLO 205 colon,3.47 µM
same,TGI,MCF7 breast,3.63 µM
same,TGI,SF-539 CNS,3.07 µM
same,TGI,TK-10 renal,2.93 µM
same,TGI,MDA-MB-435,2.92 µM
same,TGI,NCI/ADR-RES ovarian,3.33 µM
same,TGI,K-562 leukemia,3.09 µM
same,TGI,CCRF-CEM leukemia,1.98 µM
same,TGI,SF-295 CNS,17.9 µM
same,TGI,RXF 393 renal,3.75 µM
same,TGI,BT-549 breast,2.07 µM
same,TGI,ACHN renal,2.88 µM
CCCCOCCOC1=CC(=O)c2c(O)ccc(O)c2C1=O,TGI,SNB-19 CNS,3.12 µM
same,TGI,HL-60(TB) leukemia,2.99 µM
same,TGI,SR leukemia,5.11 µM
same,TGI,NCI-H522 lung,2.93 µM
same,TGI,MDA-MB-231 breast,3.85 µM
same,TGI,SW-620 colon,2.84 µM
same,TGI,UACC-257 melanoma,2.23 µM
same,TGI,NCI-H460 lung,3.43 µM
same,TGI,PC-3 prostate,6.69 µM
same,TGI,A498 renal,3 µM
same,TGI,A549 NSCLC,3.41 µM
same,TGI,DU-145 prostate,3.17 µM
same,TGI,CAKI-1 renal,3.23 µM
same,TGI,HS 578T breast,4.99 µM
same,TGI,MOLT-4 leukemia,9.38 µM
same,TGI,EKVX NSCLC,3.08 µM
same,TGI,T-47D breast,4.03 µM
same,TGI,SK-MEL-5 melanoma,0.422 µM
same,TGI,HT29 colon,3.12 µM
same,TGI,SK-MEL-2 melanoma,3.26 µM
same,TGI,SK-MEL-28 melanoma,3 µM
same,TGI,OVCAR-4 ovarian,3.33 µM
same,TGI,MDA-N,0.341 µM
same,TGI,NCI-H23 lung,3.17 µM
same,TGI,HOP-62 NSCLC,1.8 µM
same,TGI,UACC-62 melanoma,2.98 µM
same,TGI,HCT-116 colon,2.85 µM
same,TGI,IGROV1 ovarian,3.35 µM
same,TGI,U251 CNS,3.07 µM
same,TGI,SF-268 CNS,3.65 µM
same,TGI,NCI-H226 lung,3.14 µM
same,TGI,MALME-3M melanoma,0.738 µM
same,TGI,SNB-75 CNS,2.91 µM
same,TGI,HCC-2998 colon,3.3 µM
same,TGI,786-0 renal,3.03 µM
same,TGI,LOX IMVI melanoma,3.15 µM
same,TGI,M14 melanoma,2.18 µM
same,TGI,RPMI-8226 leukemia,> 10 µM
same,TGI,SK-OV-3 ovarian,> 10 µM
same,TGI,SN12C renal,3.03 µM
same,TGI,UO-31 renal,3.01 µM
same,TGI,KM12 colon,3.14 µM
same,TGI,OVCAR-3 ovarian,3.04 µM
same,TGI,HOP-92 NSCLC,4.44 µM
same,TGI,COLO 205 colon,2.36 µM
same,TGI,MCF7 breast,3.15 µM
same,TGI,SF-539 CNS,2.94 µM
same,TGI,TK-10 renal,4.8 µM
same,TGI,MDA-MB-435,0.334 µM
same,TGI,NCI/ADR-RES ovarian,4.74 µM
same,TGI,K-562 leukemia,> 10 µM
same,TGI,CCRF-CEM leukemia,4.04 µM
same,TGI,SF-295 CNS,3.02 µM
same,TGI,RXF 393 renal,3.02 µM
same,TGI,BT-549 breast,2.98 µM
same,TGI,ACHN renal,3.1 µM
